From PubChem BioAssay (NCI)
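Following 48 hours of exposure in 96-well plates, responses at five concentrations were used to interpolate endpoints linearly. GI50: concentration for 50% inhibition of growth. TGI: total growth inhibition.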

Assays:
Assay in all cases: DTP human tumour cell line panel, 48 h
[1] = tested on: RXF 393 renal
[2] = tested on: MDA-MB-435
[3] = tested on: K-562 leukemia
[4] = tested on: HCT-116 colon
[5] = tested on: HOP-92 NSCLC
[6] = tested on: COLO 205 colon
[7] = tested on: NCI-H226 lung
[8] = tested on: SK-MEL-28 melanoma
[9] = tested on: SK-OV-3 ovarian
[10] = tested on: EKVX NSCLC

| SMILES | TGI [1] [µM] | TGI [2] [µM] | TGI [3] [µM] | TGI [4] [µM] | TGI [5] [µM] | TGI [6] [µM] | TGI [7] [µM] | TGI [8] [µM] | TGI [9] [µM] | TGI [10] [µM] | GI50 [1] [µM] | GI50 [2] [µM] | GI50 [3] [µM] | GI50 [4] [µM] | GI50 [5] [µM] | GI50 [6] [µM] | GI50 [7] [µM] | GI50 [8] [µM] | GI50 [9] [µM] | GI50 [10] [µM] |
| --- | --- | --- | --- | --- | --- | --- | --- | --- | --- | --- | --- | --- | --- | --- | --- | --- | --- | --- | --- | --- |
| CN(C)CCNC(=O)Cn1ccc(=O)c2ccc([N+](=O)[O-])cc21 | > 100 | > 100 | > 100 | > 100 | > 100 | > 100 | > 100 | > 100 | > 100 | > 100 |  |  |  |  |  |  |  |  |  |  |
| CO[C@H]1C[C@@H]2CC[C@@H](C)[C@@](O)(O2)C(=O)C(=O)N2CCCC[C@H]2C(=O)O[C@H]([C@H](C)C[C@@H]2CC[C@@H](OP(C)(C)=O)[C@H](OC)C2)CC(=O)[C@H](C)/C=C(\C)[C@@H](O)[C@@H](OC)C(=O)[C@H](C)C[C@H](C)/C=C/C=C/C=C/1C | 16.4 | 23.9 | > 69.4 | 24.8 | 17.2 | 27.7 | 24.2 | 23.8 | 21.7 | 18.5 | < 0.01 | 1.41 | 11.7 | 11.8 | 0.106 | 12.7 | 1.71 | 11 | 0.557 | < 0.01 |
| O=c1oc2ccc(Cl)cc2c(=O)n1-c1cc(C(F)(F)F)cc(C(F)(F)F)c1 | 0.746 | 2.07 | > 38 | 1.21 | 0.479 | 3.72 | 2.21 | 1.69 | 2.38 | 2.01 | 0.228 | 0.313 | 0.211 | 0.277 | 0.112 | 1.78 | 0.305 | 0.273 | 0.205 | 0.288 |
| O=C(O)c1ccc(NCc2nc3cc4ccccc4cc3[nH]2)cc1 | > 100 | > 100 | > 100 | > 100 | > 100 | > 100 | > 100 | > 85.2 | > 100 | > 100 |  |  |  |  |  |  |  |  |  |  |
| COc1cccc(-n2ncc3c(N/N=C/c4ccc(S(C)(=O)=O)cc4)ncnc32)c1 | 8.76 | > 25 | > 25 | > 25 | 18.7 | > 25 | 18.1 | > 25 | 10.7 | > 25 | 2.2 | 3.55 | > 6.65 | 8.46 | 7.36 | 7.64 | 5.46 | 9.26 | 4.24 | > 22.9 |
| Nc1ccn(C2CC(O)C(CO)O2)c(=O)n1 (stereo not given) | > 5000 | > 5000 | > 5000 | > 5000 | > 5000 | > 5000 | > 5000 | > 5000 | > 5000 | > 5000 | > 5000 | > 5000 | > 5000 | > 5000 | > 5000 | > 5000 | > 5000 | > 5000 | > 5000 | > 5000 |
| O=C(O)CCCSc1nc2ccccc2s1 | > 100 | > 100 | > 100 | > 100 | > 100 | > 100 | > 100 | > 100 | > 100 | > 100 |  |  |  |  |  |  |  |  |  |  |
| COc1ccc2[nH]c(=O)c(/C=C/C(=O)/C=C/c3ccc(O)c(OC)c3)cc2c1 | 2.9 | 1.3 | > 100 | 0.338 | 5.06 | 3.81 | 6.07 | 3.25 | 9.82 | 4.35 | 1.5 | 0.301 | 1.35 | 0.164 | 1.84 | 1.6 | 2.14 | 1.69 | 2.79 | 1.95 |
| CCOC(=O)c1ccc(Nc2sc(C(=O)c3cccc([N+](=O)[O-])c3)c(N)c2C#N)cc1 | 24.8 | 0.264 | 6.53 | 4.17 | 28.1 | 1.59 | 99.5 | > 59.9 | 18.6 | > 75.8 | 0.167 | 0.0309 | 0.0375 | 0.0505 | 0.109 | 0.156 | 4.67 | 8.32 | 0.181 | 0.469 |
| O=C1OC(C2=CC(=O)c3ccccc3C2=O)C(Cl)=C1Cl (stereo not given) | 52.5 | > 100 | 83.3 | > 100 | > 100 | > 100 | 95.3 | 96.2 | > 100 | > 100 |  |  |  |  |  |  |  |  |  |  |
| CN1CCN(Cc2ccc(NC(=O)c3nc4ccc5[nH]ncc5c4c4c3CCC4)cc2C(F)(F)F)CC1 | 4.37 | 1.71 | 2.39 | 1.61 | 10.6 | 14.7 | 11.3 | 1.62 | 15.5 | 4.84 | 1.19 | 0.926 | 0.978 | 0.856 | 3.53 | 7.27 | 2.23 | 0.899 | 8.28 | 1.26 |
